Measured values published in article PMC8078842 (PLoS Neglected Tropical Diseases, 2021).
Like-named read-outs stand apart in the source and are kept apart here.

What was measured:
[1] = target: T1, Oxidase, MAO-A-Peripheral (Rattus norvegicus, UniProt P21396); assay: CNS side effect panel, [^14C] - 5HT; assay type: biochemical
T1 sequence (P21396 1-526): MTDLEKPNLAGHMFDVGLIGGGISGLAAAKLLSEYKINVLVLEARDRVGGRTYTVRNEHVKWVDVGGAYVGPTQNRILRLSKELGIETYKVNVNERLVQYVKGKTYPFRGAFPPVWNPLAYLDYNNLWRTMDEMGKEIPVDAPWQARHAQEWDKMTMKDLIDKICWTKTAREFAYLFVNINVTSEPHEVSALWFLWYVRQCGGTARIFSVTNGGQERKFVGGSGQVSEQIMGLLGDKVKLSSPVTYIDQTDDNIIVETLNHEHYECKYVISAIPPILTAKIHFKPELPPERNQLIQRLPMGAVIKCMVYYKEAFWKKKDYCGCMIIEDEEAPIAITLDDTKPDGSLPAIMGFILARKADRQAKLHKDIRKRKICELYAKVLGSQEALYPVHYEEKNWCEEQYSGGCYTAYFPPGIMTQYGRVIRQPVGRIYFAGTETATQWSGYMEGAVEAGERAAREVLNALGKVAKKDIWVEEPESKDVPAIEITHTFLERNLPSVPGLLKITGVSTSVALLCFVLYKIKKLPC

[2] = target: T2, Opioid, Orphanin, ORL1 (h) (Homo sapiens, UniProt P41146); assay: CNS side effect panel, [^3H] Nociceptin; assay type: binding; settings: pentamidine 1.0E^-5 M
T2 construct: purchased Perkin-Elmer Science Discovery Systems (NovaScreen), customised CNS screening panel
T2 sequence (P41146 whole entry): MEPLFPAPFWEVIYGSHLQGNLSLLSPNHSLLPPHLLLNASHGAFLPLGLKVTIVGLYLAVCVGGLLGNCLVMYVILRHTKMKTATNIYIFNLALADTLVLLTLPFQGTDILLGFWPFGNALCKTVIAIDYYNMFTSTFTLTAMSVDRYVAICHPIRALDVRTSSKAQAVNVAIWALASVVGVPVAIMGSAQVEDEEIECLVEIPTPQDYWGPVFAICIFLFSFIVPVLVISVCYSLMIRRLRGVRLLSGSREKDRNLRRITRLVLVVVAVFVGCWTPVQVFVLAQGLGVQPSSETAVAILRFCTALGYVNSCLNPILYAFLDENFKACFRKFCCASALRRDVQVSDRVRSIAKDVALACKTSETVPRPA

GABA A, Agonist Site = assay: CNS side effect panel, [^3H]GABA; assay type: binding; settings: pentamidine 1.0E^-5 M
Dopamine, D1 (h) = target: T3, Dopamine, D1 (h) (Homo sapiens, UniProt P21728); assay: CNS side effect panel, [^3H]-SCH23390; assay type: binding; settings: pentamidine 1.0E^-5 M
T3 construct: purchased Perkin-Elmer Science Discovery Systems (NovaScreen), customised CNS screening panel
T3 sequence (P21728 whole entry): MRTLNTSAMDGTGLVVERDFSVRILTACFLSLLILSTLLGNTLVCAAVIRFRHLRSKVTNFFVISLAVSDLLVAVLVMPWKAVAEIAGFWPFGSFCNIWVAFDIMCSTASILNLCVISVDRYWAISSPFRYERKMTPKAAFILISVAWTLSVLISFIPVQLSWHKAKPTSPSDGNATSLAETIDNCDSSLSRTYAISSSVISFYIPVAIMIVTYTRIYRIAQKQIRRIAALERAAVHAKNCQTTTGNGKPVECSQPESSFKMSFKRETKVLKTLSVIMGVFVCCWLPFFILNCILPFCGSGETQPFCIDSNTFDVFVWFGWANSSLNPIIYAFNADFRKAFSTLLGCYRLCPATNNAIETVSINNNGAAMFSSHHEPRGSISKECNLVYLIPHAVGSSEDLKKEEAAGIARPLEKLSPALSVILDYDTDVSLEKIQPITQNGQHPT

Esterase, Acetylcholine = assay: CNS side effect panel, Acetylthiocholine; assay type: biochemical; settings: pentamidine 1.0E^-5 M
[3] = tested on: GABA A, BDZ, alpha 1 site; assay: CNS side effect panel, [^3H]Flunitrazepam; assay type: binding; settings: pentamidine 1.0E^-5 M
[4] = tested on: Corticotropin Releasing Factor, Non-selective; assay: CNS side effect panel, [^125I]Tyr0-oCRF; assay type: binding; settings: pentamidine 1.0E^-5 M
[5] = tested on: Nitric Oxide, NOS (Neuronal-Binding); assay: CNS side effect panel, [^3H]NOARG; settings: pentamidine 1.0E^-5 M
GABA-B = assay: CNS side effect panel, [^3H]CGP 54626A; assay type: binding; settings: pentamidine 1.0E^-5 M
Sigma, Non-selective = assay: CNS side effect panel, [^3H]DTG; assay type: binding; settings: pentamidine 1.0E^-5 M
[6] = tested on: Potassium Channel, Ca2+ Act., VI; assay: CNS side effect panel, [^125I]Apamin; assay type: binding; settings: pentamidine 1.0E^-5 M
Serotonin, Non-selective = assay: CNS side effect panel, [^3H] LSD; assay type: binding; settings: pentamidine 1.0E^-5 M
[7] = tested on: Cholecystokinin, CCK2 (CCKB); assay: CNS side effect panel, [^125I]CCK-8; assay type: binding; settings: pentamidine 1.0E^-5 M
[8] = tested on: Glycine, Strychnine-sensitive; assay: CNS side effect panel, [^3H]Strychnine; assay type: binding; settings: pentamidine 1.0E^-5 M
[9] = tested on: Decarboxylase, Glutamic Acid; assay: CNS side effect panel, [^14C]Glutamic acid; assay type: biochemical; settings: pentamidine 1.0E^-5 M
[10] = tested on: Glutamate,NMDA,Glycine (Stry-insens Site) (Ionot); assay: CNS side effect panel, [^3H]-MDL-105,519; assay type: binding; settings: pentamidine 1.0E^-5 M
[11] = tested on: Trypanosoma brucei gambience; settings: cited from earlier work
PRL phosphatases = settings: Oncology target; cited from earlier work
[12] = tested on: Acid sensing ion channels (ASIC); settings: Potency 1b>3>2a>or = 1a; cited from earlier work
[13] = target: cloned hKir2.1 potassium channels (Homo sapiens, UniProt P63252); assay: cell-based
cloned hKir2.1 potassium channels, sequence (P63252 whole entry): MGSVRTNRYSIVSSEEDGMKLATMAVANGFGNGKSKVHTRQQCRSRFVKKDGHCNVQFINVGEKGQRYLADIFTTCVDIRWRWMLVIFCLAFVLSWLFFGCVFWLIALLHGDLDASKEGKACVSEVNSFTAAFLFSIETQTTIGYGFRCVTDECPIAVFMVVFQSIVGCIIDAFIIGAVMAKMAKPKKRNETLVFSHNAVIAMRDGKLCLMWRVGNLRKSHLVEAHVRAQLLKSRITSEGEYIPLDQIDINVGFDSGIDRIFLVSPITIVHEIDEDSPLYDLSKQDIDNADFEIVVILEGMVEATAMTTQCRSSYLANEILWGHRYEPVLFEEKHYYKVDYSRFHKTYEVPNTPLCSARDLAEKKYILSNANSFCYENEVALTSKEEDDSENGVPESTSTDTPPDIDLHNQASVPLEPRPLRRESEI

[14] = previously published data; cited from earlier work

## N=C(N)c1ccc(OCCCCCOc2ccc(C(=N)N)cc2)cc1 [Pentamidine, 1,5-bis-4ρ-amidinophenoxypentane]
[1]; Monoamine oxidase A, concentration-response
  Ki: 217 nM
[1]; pentamidine 1.0E^-5 M
  Percent Inhibition: 89.42%
[2]
  Percent Inhibition: 36.62%
GABA A, Agonist Site
  Percent Inhibition: 31.10%
Dopamine, D1 (h)
  Percent Inhibition: 27.48%
Esterase, Acetylcholine
  Percent Inhibition: 23.21%
[3]
  Percent Inhibition: 20.54%
[4]
  Percent Inhibition: 17.05%
[5]
  Percent Inhibition: 12.98%
GABA-B
  Percent Inhibition: 10.74%
Sigma, Non-selective
  Percent Inhibition: 6.50%
[6]
  Percent Inhibition: 2.07%
Serotonin, Non-selective
  Percent Inhibition: 0.09%
[7]
  Percent Inhibition: 0.09%
[8]
  Percent Inhibition: -0.22%
[9]
  Percent Inhibition: -1.41%
[10]
  Percent Inhibition: -17.52%
[11]; Time-dependent
  Affinity, Trypanocidal: 0.01 µM
[11]
  trypanocidal activity in vitro: around 10 nM
[11]; comparator for relative selectivity, read-out: Trypanocidal Activity (IC50), printed in column Ki
  IC50: 10 nM
[11]; read-out: IC50
  IC50: 14.7 ± 4.7 nM
PRL phosphatases
  Affinity: 3 µM
[12]
  Affinity: 38 µM
[13]
  IC50: > 10000 nM

## [^3H(G)]pentamidine
[14]
  Accumulation corrected for vascular space, hippocampus: 4.3%
  Accumulation corrected for vascular space, hypothalamus: 7.6%
  Accumulation corrected for vascular space, pons: 8.2%
